Measurements: US20160145267A1, “HETEROARYL SUBSTITUTED PYRAZOLES” (BAYER PHARMA AKTIENGESELLSCHAFT, priority 2013, published 2016)
Read-outs that look alike come from different tables or passages of the source.

Legend:
[1] = target: T1, catalytic domain of human Bub1 (amino acids 704-1085) (Homo sapiens, UniProt O43683); experiment: Bub1 kinase assay (TR-FRET); type: biochemical
T1 construct: catalytic domain of human Bub1 (amino acids 704-1085); His6 (N); made in house; host or cells: Hi5 insect cells
T1 sequence (O43683 704-1085): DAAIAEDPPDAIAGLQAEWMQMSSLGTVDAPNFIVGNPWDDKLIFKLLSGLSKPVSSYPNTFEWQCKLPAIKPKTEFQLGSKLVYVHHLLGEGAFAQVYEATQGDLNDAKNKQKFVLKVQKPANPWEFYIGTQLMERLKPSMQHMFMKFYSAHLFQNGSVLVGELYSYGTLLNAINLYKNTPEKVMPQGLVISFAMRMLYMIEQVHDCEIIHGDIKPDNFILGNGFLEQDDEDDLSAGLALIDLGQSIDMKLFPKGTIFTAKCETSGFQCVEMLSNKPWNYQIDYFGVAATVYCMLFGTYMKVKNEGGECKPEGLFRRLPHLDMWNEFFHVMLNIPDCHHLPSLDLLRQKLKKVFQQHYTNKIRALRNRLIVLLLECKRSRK
Method: To this end, 100-fold concentrated compound solutions (in DMSO) were previously prepared by serial dilution (1:3.4) of 2 mM stocks in a clear low volume 384-well source microtiter plate (Greiner Bio-One, Frickenhausen, Germany), from which 50 nL of compounds were transferred into a black low volume test microtiter plate from the same supplier. […] The resulting mixture (5 μL final volume) was incubated at 22° C. during 60 min., and the reaction was stopped by the addition of 5 μL of an aqueous EDTA-solution (50 mM EDTA, in 100 mM HEPES pH 7.5 and 0.2% (w/v) bovine serum albumin) which also contained the TR-FRET detection reagents (0.2 μM streptavidin-XL665 [Cisbio Bioassays, Codolet, France] and 1 nM anti-phoshoSerine antibody [Merck Millipore, cat. #35-001] and 0.4 nM LANCE EU-W1024 labeled anti-mouse IgG antibody [Perkin-Elmer, product no. AD0077, alternatively a Terbium-cryptate-labeled anti-mouse IgG antibody from Cisbio Bioassays can be used]). The stopped reaction mixture was further incubated 1 h at 22° C. in order to allow the formation of complexes between peptides and detection reagents. Subsequently, the amount of product was evaluated by measurement of the resonance energy transfer from the Eu-chelate-antibody complex recognizing the Phosphoserine residue to the streptavidin-XL665 bound to the biotin moiety of the peptide.

HeLa cell line = experiment: Proliferation assay (HeLa cell line); type: cell-based; settings: Homo sapiens, 96 h, read-out: Biological Assay 2: Proliferation assay (HeLa cell line) median IC50
Method: (§1) Cultivated tumor cells (cells were ordered from ATCC, except HeLa-MaTu and HeLa-MaTu-ADR, which were ordered from EPO-GmbH, Berlin) were plated at a density of 1000 to 5000 cells/well, depending on the growth rate of the respective cell line, in a 96-well multititer plate in 200 μL of their respective growth medium supplemented 10% fetal calf serum. After 24 hours, the cells of one plate (zero-point plate) were stained with crystal violet (see below), while the medium of the other plates was replaced by fresh culture medium (200 μL), to which the test substances were added in various concentrations (0 μM, as well as in the range of 0.001-10 μM; the final concentration of the solvent dimethyl sulfoxide was 0.5%). The cells were incubated for 4 days in the presence of test substances. Cell proliferation was determined by staining the cells with crystal violet: the cells were fixed by adding 20 μL/measuring point of an 11% glutaric aldehyde solution for 15 minutes at room temperature. After three washing cycles of the fixed cells with water, the plates were dried at room temperature. The cells were stained by adding 100 μL/measuring point of a 0.1% crystal violet solution (pH 3.0). After three washing cycles of the stained cells with water, the plates were dried at room temperature. The dye was dissolved by adding 100 μl/measuring point of a 10% acetic acid solution. Absorbtion was determined by photometry at a wavelength of 595 nm. The change of cell number, in percent, was calculated by normalization of the measured values to the absorbtion values of the zero-point plate (=0%) and the absorbtion of the untreated (0 μm) cells (=100%). The IC50 values were determined by means of a 4 parameter fit.

HeLa-MaTu-ADR cell line = experiment: Proliferation assay (HeLa-MaTu-ADR cell line); type: cell-based; settings: 96 h, read-out: Biological Assay 2: Proliferation assay (HeLa-MaTu-ADR cell line) median IC50
Method: as §1

NCl-H460 cell line = experiment: Proliferation assay (NCI-H460 cell line); type: cell-based; settings: Homo sapiens, NCI-H460, 96 h, read-out: Biological Assay 2: Proliferation assay (NCl-H460 cell line) median IC50
Method: as §1

DU145 cell line = experiment: Proliferation assay (DU145 cell line); type: cell-based; settings: Homo sapiens, DU-145, 96 h, read-out: Biological Assay 2: Proliferation assay (DU145 cell line) median IC50
Method: as §1

Caco2 cell line = experiment: Proliferation assay (Caco2 cell line); type: cell-based; settings: Homo sapiens, Caco-2, 96 h, read-out: Biological Assay 2: Proliferation assay (Caco2 cell line) median IC50
Method: as §1

B16F10 cell line = experiment: Proliferation assay (B16F10 cell line); type: cell-based; settings: Mus musculus, B16-F10, 96 h, read-out: Biological Assay 2: Proliferation assay (B16F10 cell line) median IC50
Method: as §1

[2] = 10 μM ATP, 1 μM peptide substrate, TR-FRET, read-out: Biological Assay 1: Bub1 kinase assay median IC50
[3] = 4 days incubation, crystal violet staining

Row | IC50 [1, 2] | IC50 (HeLa cell line) | SMILES | other results
1 | 480 nM | 0.97 µM | CCOc1cc(F)c(Cn2nc(-c3nc(Nc4ccncc4)c(OCCOC)c(Nc4ccncc4)n3)c(C)c2C2CC2)c(F)c1 [Example 2-2-12, 2-[5-cyclopropyl-1-(4-ethoxy-2,6-difluorobenzyl)-4-methyl-1H-pyrazol-3-yl]-5-(2-methoxyethoxy)-N,N′-di(pyridin-4-yl)pyrimidine-4,6-diamine] | IC50 (HeLa-MaTu-ADR cell line): 0.73 µM; IC50 (NCl-H460 cell line): 1.2 µM; IC50 (DU145 cell line): 1700 nM; IC50 (Caco2 cell line): 1100 nM; IC50 (B16F10 cell line): 0.4 µM
2 | 150 nM | 2.2 µM | CCNC(=O)Nc1c(Nc2ccncc2)nc(-c2nn(Cc3c(F)cc(OCC)cc3F)c(C3CC3)c2C)nc1Nc1ccncc1 [Example 2-2-16, 1-{2-[5-cyclopropyl-1-(4-ethoxy-2,6-difluorobenzyl)-4-methyl-1H-pyrazol-3-yl]-4,6-bis(pyridin-4-ylamino)pyrimidin-5-yl}-3-ethylurea] | –
3 | 180 nM | > 10 µM | CCOc1cc(F)c(Cn2nc(-c3nc(Nc4ccncn4)c(OC)c(Nc4ccncn4)n3)c(C)c2C2CC2)c(F)c1 [Example 2-2-5, 2-[5-cyclopropyl-1-(4-ethoxy-2,6-difluorobenzyl)-4-methyl-1H-pyrazol-3-yl]-5-methoxy-N,N′-di(pyrimidin-4-yl)pyrimidine-4,6-diamine] | –
4 | 34 nM | 10 µM | CCOc1cc(F)c(Cn2nc(-c3nc4c(c(Nc5ccncn5)n3)OCC(=O)N4)c(C)c2C2CC2)c(F)c1 [Example 2-1-33, 2-[5-cyclopropyl-1-(4-ethoxy-2,6-difluorobenzyl)-4-methyl-1H-pyrazol-3-yl]-4-(pyrimidin-4-ylamino)-6H-pyrimido[5,4-b][1,4]oxazin-7(8H)-one] | –

Continued, molecule first:

Row | SMILES | IC50 [1, 2] | IC50 (HeLa cell line) | other results
5 | CCOc1cc(F)c(Cn2nc(-c3nc(Nc4ccncn4)nc(Nc4ccncn4)n3)c(C)c2C2CC2)c(F)c1 [Example 2-2-9, 6-[5-cyclopropyl-1-(4-ethoxy-2,6-difluorobenzyl)-4-methyl-1H-pyrazol-3-yl]-N,N′-di(pyrimidin-4-yl)-1,3,5-triazine-2,4-diamine] | – | 1.7 µM | IC50 [1]: 1700 nM; IC50 (HeLa-MaTu-ADR cell line; HeLa-MaTu-ADR, 4 days incubation, crystal violet staining): 10 µM; IC50 (NCl-H460 cell line; NCl-H460, 4 days incubation, crystal violet staining): 9.9 µM; IC50 (DU145 cell line; DU145, 4 days incubation, crystal violet staining): 3200 nM; IC50 (Caco2 cell line; Caco2, 4 days incubation, crystal violet staining): 3500 nM; IC50 (B16F10 cell line; B16F10, 4 days incubation, crystal violet staining): 8.8 µM
6 | CCNC(=O)Nc1nc(-c2nn(Cc3c(F)cc(OCC)cc3F)c(C3CC3)c2C)nc(Nc2ccncc2)c1N1CCOCC1 [Example 2-1-18, 1-{2-[5-cyclopropyl-1-(4-ethoxy-2,6-difluorobenzyl)-4-methyl-1H-pyrazol-3-yl]-5-(morpholin-4-yl)-6-(pyridin-4-ylamino)pyrimidin-4-yl}-3-ethylurea] | – | – | IC50 [1]: 290 nM; IC50 (HeLa cell line; [3]): 10 µM
7 | CCOc1cc(F)c(Cn2nc(-c3nc(N)c(N4CCOCC4)c(Nc4ccncc4)n3)c(C)c2C2CC2)c(F)c1 [Example 2-1-6, 2-[5-cyclopropyl-1-(4-ethoxy-2,6-difluorobenzyl)-4-methyl-1H-pyrazol-3-yl]-5-(morpholin-4-yl)-N-(pyridin-4-yl)pyrimidine-4,6-diamine] | 12 nM | 5.2 µM | –
8 | CCOc1cc(F)c(Cn2nc(-c3nc(Nc4ccncn4)c(NC(=O)COC)c(Nc4ccncn4)n3)c(C)c2C2CC2)c(F)c1 [Example 2-2-15, N-{2-[5-cyclopropyl-1-(4-ethoxy-2,6-difluorobenzyl)-4-methyl-1H-pyrazol-3-yl]-4,6-bis(pyrimidin-4-ylamino)pyrimidin-5-yl}-2-methoxyacetamide] | – | – | IC50 [1]: 42 nM; IC50 (HeLa cell line; [3]): 4.7 µM
9 | CCOc1cc(F)c(Cn2nc(-c3nc(N)c(N4CCOCC4)c(Nc4ccncn4)n3)c(C)c2C2CC2)c(F)c1 [Example 2-1-7, 2-[5-cyclopropyl-1-(4-ethoxy-2,6-difluorobenzyl)-4-methyl-1H-pyrazol-3-yl]-5-(morpholin-4-yl)-N-(pyrimidin-4-yl)pyrimidine-4,6-diamine] | 9.8 nM | 5.3 µM | –
10 | CCOc1cc(F)c(Cn2nc(-c3nc(N)c(NS(=O)(=O)CC)c(Nc4ccncc4)n3)c(C)c2C2CC2)c(F)c1 [Example 2-1-30, N-{4-amino-2-[5-cyclopropyl-1-(4-ethoxy-2,6-difluorobenzyl)-4-methyl-1H-pyrazol-3-yl]-6-(pyridin-4-ylamino)pyrimidin-5-yl}ethanesulfonamide] | 8.8 nM | > 10 µM | –
11 | CCOc1cc(F)c(Cn2nc(-c3nc(N)c(OCCOC)c(Nc4ccncc4)n3)c(C)c2C2CC2)c(F)c1 [Example 2-1-25, 2-[5-cyclopropyl-1-(4-ethoxy-2,6-difluorobenzyl)-4-methyl-1H-pyrazol-3-yl]-5-(2-methoxyethoxy)-N-(pyridin-4-yl)pyrimidine-4,6-diamine] | 10 nM | 3 µM | –
12 | CCOc1cc(F)c(Cn2nc(-c3nc(N)c(NS(=O)(=O)C(F)(F)F)c(Nc4ccncc4)n3)c(C)c2C2CC2)c(F)c1 [Example 2-1-31, N-{4-amino-2-[5-cyclopropyl-1-(4-ethoxy-2,6-difluorobenzyl)-4-methyl-1H-pyrazol-3-yl]-6-(pyridin-4-ylamino)pyrimidin-5-yl}-1,1,1-trifluoromethanesulfonamide] | 9.8 nM | 10 µM | –
13 | CCNC(=O)Nc1cc(Nc2ccncn2)nc(-c2nn(Cc3c(F)cc(OCC)cc3F)c(C3CC3)c2C)n1 [Example 2-1-11, 1-{2-[5-cyclopropyl-1-(4-ethoxy-2,6-difluorobenzyl)-4-methyl-1H-pyrazol-3-yl]-6-(pyrimidin-4-ylamino)pyrimidin-4-yl}-3-ethylurea] | 130 nM | 4.9 µM | –
14 | CCOc1cc(F)c(Cn2nc(-c3nc(N)c(OCCOC)c(Nc4ccncn4)n3)c(C)c2C2CC2)c(F)c1 [Example 2-1-26, 2-[5-cyclopropyl-1-(4-ethoxy-2,6-difluorobenzyl)-4-methyl-1H-pyrazol-3-yl]-5-(2-methoxyethoxy)-N-(pyrimidin-4-yl)pyrimidine-4,6-diamine] | – | – | IC50 [1]: 9.2 nM; IC50 (HeLa cell line; [3]): 4.2 µM
15 | CCNC(=O)Nc1nc(-c2nn(Cc3c(F)cc(OCC)cc3F)c(C3CC3)c2C)nc(Nc2ccncn2)c1N1CCOCC1 [Example 2-1-19, 1-{2-[5-cyclopropyl-1-(4-ethoxy-2,6-difluorobenzyl)-4-methyl-1H-pyrazol-3-yl]-5-(morpholin-4-yl)-6-(pyrimidin-4-ylamino)pyrimidin-4-yl}-3-ethylurea] | 2100 nM | 5.6 µM | –
